Assay results: patent US8921414B2, “Spiroketals” (EcoBiotics Ltd, priority 2005, dated 2014)
Values after ≈ are worked out from the molar mass of the structure shown.

Legend:
Haemonchus contortus = test: NemaTOX (Ne) anthelmintic larval development bioassay; conditions: for Ne LD99: weight of chemical in last well with activity, real value may be lower
Method: NemaTOX (alternatively referred to herein as Ne) is an anthelmintic bioassay, applicable to all parasitic nematodes with free-living life cycle stages, and can be used as a screen to detect activity and define the species spectrum of compounds against parasitic nematodes and examine the impact of pre-existing resistance to other anthelmintic classes on potency. Haemonchus contortus was utilised for this assay.
The effect on larval development is determined in this assay by the method described by Gill et al. (1995) Int. J. Parasitol. 25: 463-470. Briefly, in this assay nematode eggs were applied to the surface of an agar matrix containing the test sample and allowed to develop through to the L3, infective stage (6 days). At this time the stage of larval development reached and any unusual features (deformity, paralysis, toxicity) were noted by microscopic examination.

Bacillus subtilis = test: ProTOX (Bs) antibacterial bioassay; format: cell-based; conditions: for Bs LD99: weight of chemical in last well with activity, real value may be lower
Excerpt: ProTOX, (alternatively referred to herein as Bs) is an antibacterial bioassay, broadly applicable to most aerobic and anaerobic bacteria. The bioassay features a solid phase agar base into which the test compound has been incorporated together with a chromogen. As the bacteria multiply in the well, the chromogen is metabolised from blue in a two-step process to a colourless compound. Compounds with potent bactericidal activity inhibit bacterial metabolism of the chromogen while bacteriostatic compounds induce limited metabolism as indicated by an intermediate pink colour. ProTOX is broadly applicable to a range of gram-positive and gram-negative bacteria under aerobic and microaerophilic conditions. ProTOX assays were carried out using Bacillus subtilis. Briefly, in ProTOX, the bacteria (24 hour broth) were applied to the surface of an agar matrix containing the test sample and allowed to grow for 48 h. The assay was monitored at 24 and 48 hours and the active wells noted. Known antibiotics yield consistent colour transitions which are concentration and time dependent. These patterns provided an important guide to the early recognition of interesting characteristics.

Drosophila melanogaster = test: DipteraTOX insecticidal bioassay; parameters: key: A value of A in DipG, Dip P or Dip H represents very active; a value of P represents active; conditions: 250 μg per mL in agar
Method: DipteraTOX. DipteraTOX is referred to herein as DipG, DipP and DipH. DipG represents no grazing of larva. DipP represents no pupae formation and Dip H represents no hatching of flies. A value of A in DipG, Dip P or Dip H represents very active and a value of P represents active. In DipteraTox the fly eggs are applied to the surface of an agar matrix containing 250 μg per mL of the test chemical and allowed to hatch, develop and pupate for a period up of two weeks. The assay was monitored at two discrete times to determine the extent of grazing of the agar matrix at Week 1 and the presence of adult flies at Week 2. […] Drosophila melanogaster was utilised for this assay.

Giardia spp. = test: TriTOX (Gi) anti-protozoan bioassay; format: cell-based; conditions: for Gi LD99: weight of chemical in last well with activity, real value may be lower
Excerpt: TriTOX (alternatively referred to herein as Gi) is a microtitre plate based chromogenic bioassay for the screening of anti-protozoan activity of pathogenic, anaerobic/microaerophilic protozoans for example Giardia spp. and Trichomonas spp. The bioassays are run under anaerobic conditions and features species specific chromogens. […] Aliquots of each concentration(s) are applied to the wells of 96-well microtitre plates and diluted with media. […] The lowest concentration at which the compound is active is noted as the minimum inhibitory concentration (MIC). Additionally, microscopic inspection is carried out to identify any patterns of morphological change that may be consistent with a type of toxicity and therefore mode of action. Giardia spp. was utilized for this assay.

[1] = test system: normal human fibroblasts (NFF); test: Additional in vitro activity: cytotoxic activity, NFF; format: cell-based; conditions: concentration with activity
leukemia K562 = test: Additional in vitro activity: antitumor activity, K562; format: cell-based, human; conditions: concentration with activity
melanoma MM418c5 = test: Additional in vitro activity: antitumor activity, MM418c5; format: cell-based, human; conditions: concentration with activity
prostate DU145 = test: Additional in vitro activity: antitumor activity, DU145; format: cell-based, human; conditions: concentration with activity
breast MCF-7 = test: Additional in vitro activity: antitumor activity, MCF-7; format: cell-based, human; conditions: concentration with activity
ovarian C180-13S = test: Additional in vitro activity: antitumor activity, C180-13S; format: cell-based, human; conditions: concentration with activity
[2] = test system: Neonatal foreskin fibroblasts (NFF); test: Cell growth inhibition (Table 22), NFF; format: cell-based; conditions: Homo sapiens, read-out: IC50 (drug dose which inhibits cell growth by 50%) NFF
Method: (§1) The isolated compounds were tested against a number of human and non-human cancer cell lines. The human tumor cell lines were: MCF-7, MDA-MB-231 and T47D, breast cancer; DU145 and PC3, prostate cancer; CI80-13S, ovarian cancer; MM96L, D04, SkMel5, MM418c5 melanoma; HT29, colon cancer; K562 and HL60, leukemia. Mouse cell lines were the B16 mouse melanoma and LK2 UV-induced squamous cell carcinoma (SCC). Neonatal foreskin fibroblasts (NFF) were used as normal control cells. Cells were cultured at 37° C. in 5% carbon dioxide/air, in RPMI 1640 medium containing 10% fetal calf serum.

DU145 prostate cancer = test: Cell growth inhibition (Table 22), DU145; format: cell-based; conditions: Homo sapiens, DU-145; read-out: IC50 (drug dose which inhibits cell growth by 50%) DU145
Method: as §1

K562 leukemia = test: Cell growth inhibition (Table 22), K562; format: cell-based; conditions: Homo sapiens, read-out: IC50 (drug dose which inhibits cell growth by 50%) K562
Method: as §1

CI80-13S ovarian cancer = test: Cell growth inhibition (Table 22), C180-13S; format: cell-based; conditions: Homo sapiens, read-out: IC50 (drug dose which inhibits cell growth by 50%) C180-13S
Method: as §1

MM96L melanoma = test: Cell growth inhibition (Table 22), MM96L; format: cell-based; conditions: Homo sapiens, read-out: IC50 (drug dose which inhibits cell growth by 50%) MM96L
Method: as §1

SMILES	DipP (no pupae formation) (Drosophila melanogaster)	cytotoxic activity against normal human fibroblasts (NFF) at [1] [µg/mL]	antitumor activity against leukemia K562 at (leukemia K562) [µg/mL]	antitumor activity against melanoma MM418c5 at (melanoma MM418c5) [µg/mL]	antitumor activity against prostate DU145 at (prostate DU145) [µg/mL]	antitumor activity against breast MCF-7 at (breast MCF-7) [µg/mL]	antitumor activity against ovarian C180-13S at (ovarian C180-13S) [µg/mL]	IC50 [2] [µg/mL]	IC50 (DU145 prostate cancer) [µg/mL]	IC50 (K562 leukemia) [µg/mL]	IC50 (CI80-13S ovarian cancer) [µg/mL]	IC50 (MM96L melanoma) [µg/mL]	also measured
CCCCCCCCCCCCCC(O)CC1CC(O)CC2(CC3OC(=O)C=CC3O2)O1 (centres unmarked) [EBI-23]	P	30	3	1	3	1	1	2 (≈ 4.42 µM)	0.7 (≈ 1.55 µM)	1.7 (≈ 3.76 µM)	0.2 (≈ 0.442 µM)	0.15 (≈ 0.331 µM)	Ne Titre (Haemonchus contortus): 1; Ne LD99 (Haemonchus contortus; listed as EB77.LA4.92-100): 63 µg/mL; Ne LD99 (Haemonchus contortus; listed as EB116.LA3.31-27/32): 100 µg/mL; Bs Titre (Bacillus subtilis): 16; Bs LD99 (Bacillus subtilis; listed as EB77.LA4.92-100): 3.9 µg/mL; Bs LD99 (Bacillus subtilis; listed as EB116.LA3.31-27/32): 3.1 µg/mL; Bs LD99 (Bacillus subtilis; listed as EB116.LA3.60-40/42): 6.3 µg/mL; Gi Titre (Giardia spp.): 4; Gi LD99 (Giardia spp.; listed as EB77.LA4.92-100): 16 µg/mL; Gi LD99 (Giardia spp.; listed as EB116.LA3.31-27/32): 50 µg/mL; Gi LD99 (Giardia spp.; listed as EB116.LA3.60-40/42): 50 µg/mL
CC/C=C/CCCCCCCCCCCC(O)CC1CC(O)CC2(CC3OC(=O)C=CC3O2)O1 (centres unmarked) [EBI-24]	P/P	10	10	10	10	10	3	0.8 (≈ 1.67 µM)	0.7 (≈ 1.46 µM)	0.6 (≈ 1.25 µM)	0.75 (≈ 1.57 µM)	1.3 (≈ 2.72 µM)	Ne LD99 (Haemonchus contortus; listed as EB116.LA3.31-36/40): 100 µg/mL; Ne LD99 (Haemonchus contortus; listed as EB116.LA3.60-47/49): 50 µg/mL; Bs LD99 (Bacillus subtilis): 13 µg/mL; DipH (no hatching of flies) (Drosophila melanogaster): P/P; Gi LD99 (Giardia spp.; listed as EB116.LA3.31-36/40): 100 µg/mL; Gi LD99 (Giardia spp.; listed as EB116.LA3.60-47/49): 50 µg/mL
